According to ChEMBL document CHEMBL3046536, “Synthesis, crystal structure, and insecticidal activity of novel N-alkyloxyoxalyl derivatives of 2-arylpyrrole” (2008):

Columns and labels:
Format in all cases: functional
Tetranychus cinnabarinus [1] = assay: Insecticidal activity against Tetranychus cinnabarinus (carmine spider mite) infested on Sieva bean plants leaves exposed to compound formulation at 200 mg/kg assessed as insect mortality measured 2 days post compound treatment; conditions: 48 h
Tetranychus cinnabarinus [2] = assay: Insecticidal activity against Tetranychus cinnabarinus (carmine spider mite) infested on Sieva bean plants leaves exposed to compound formulation at 50 mg/kg assessed as insect mortality measured 2 days post compound treatment; conditions: 48 h
Mythimna separata [3] = assay: Insecticidal activity against Mythimna separata (Oriental armyworm) fourth-instar larvae infested compound pre-treated corn leaves assessed as insect mortality at 10 mg/kg measured 2 days post compound treatment
Mythimna separata [4] = assay: Insecticidal activity against Mythimna separata (Oriental armyworm) fourth-instar larvae infested compound pre-treated corn leaves assessed as insect mortality at 20 mg/kg measured 2 days post compound treatment
Culex pipiens pallens [5] = assay: Insecticidal activity against Culex pipiens pallens (mosquito) fourth-instar larvae assessed as insect mortality at 0.5 mg/kg measured 2 days post compound treatment; conditions: 48 h
Culex pipiens pallens [6] = assay: Insecticidal activity against Culex pipiens pallens (mosquito) fourth-instar larvae assessed as insect mortality at 0.25 mg/kg measured 2 days post compound treatment; conditions: 48 h
Culex pipiens pallens [7] = assay: Insecticidal activity against Culex pipiens pallens (mosquito) fourth-instar larvae assessed as insect mortality at 0.1 mg/kg measured 2 days post compound treatment; conditions: 48 h
Tetranychus cinnabarinus [8] = assay: Insecticidal activity against Tetranychus cinnabarinus (carmine spider mite) infested on Sieva bean plants leaves exposed to compound formulation at 100 mg/kg assessed as insect mortality measured 2 days post compound treatment; conditions: 48 h
Mythimna separata [9] = assay: Insecticidal activity against Mythimna separata (Oriental armyworm) fourth-instar larvae infested compound pre-treated corn leaves assessed as insect mortality at 5 mg/kg measured 2 days post compound treatment

SMILES | mortality at 200 mg/kg (Tetranychus cinnabarinus [1]) [%] | mortality at 50 mg/kg (Tetranychus cinnabarinus [2]) [%] | mortality at 10 mg/kg (Mythimna separata [3]) [%] | mortality at 20 mg/kg (Mythimna separata [4]) [%] | mortality at 0.5 mg/kg (Culex pipiens pallens [5]) [%] | mortality at 0.25 mg/kg (Culex pipiens pallens [6]) [%] | mortality at 0.1 mg/kg (Culex pipiens pallens [7]) [%] | mortality at 100 mg/kg (Tetranychus cinnabarinus [8]) [%] | mortality at 5 mg/kg (Mythimna separata [9]) [%]
N#Cc1c(Br)c(C(F)(F)F)n(COC(=O)C(=O)OCC(F)(F)F)c1-c1ccc(Cl)cc1 | 100 | 92 | 10 | 70 | 100 | 30 | 0 | 95 | –
N#Cc1c(Br)c(C(F)(F)F)n(COC(=O)C(=O)OC2CCCCC2)c1-c1ccc(Cl)cc1 | – | – | 20 | 100 | 100 | 90 | 20 | – | –
CCOCn1c(-c2ccc(Cl)cc2)c(C#N)c(Br)c1C(F)(F)F [CHLORFENAPYR] | 100 | 93 | 100 | 100 | 100 | 100 | 100 | 97 | 0
CCCNC(=O)C(=O)OCn1c(-c2ccc(Cl)cc2)c(C#N)c(Br)c1C(F)(F)F | – | – | 25 | 100 | 100 | 100 | 80 | – | –
N#Cc1c(Br)c(C(F)(F)F)n(COC(=O)C(=O)OCCF)c1-c1ccc(Cl)cc1 | 100 | 83 | 10 | 100 | 100 | 100 | 100 | 92 | –
CC(C)COC(=O)C(=O)OCn1c(-c2ccc(Cl)cc2)c(C#N)c(Br)c1C(F)(F)F | 100 | – | 100 | 100 | 100 | 90 | 10 | – | 0
C/C=C/NC(=O)C(=O)OCn1c(-c2ccc(Cl)cc2)c(C#N)c(Br)c1C(F)(F)F | 96 | 89 | 15 | 100 | – | – | – | 93 | –
Cc1ccccc1NC(=O)C(=O)OCn1c(-c2ccc(Cl)cc2)c(C#N)c(Br)c1C(F)(F)F | – | – | 10 | 100 | 100 | 100 | 100 | – | –
COCCOC(=O)C(=O)OCn1c(-c2ccc(Cl)cc2)c(C#N)c(Br)c1C(F)(F)F | 100 | 94 | 20 | 100 | 100 | 90 | 20 | 95 | –
N#Cc1c(Br)c(C(F)(F)F)n(COC(=O)C(=O)Nc2ccccc2)c1-c1ccc(Cl)cc1 | 99 | 86 | 0 | 100 | 100 | 30 | 0 | 92 | –
CCC(C)NC(=O)C(=O)OCn1c(-c2ccc(Cl)cc2)c(C#N)c(Br)c1C(F)(F)F (stereo not drawn) | – | – | 30 | 100 | – | – | – | – | –
CCCCOC(=O)C(=O)OCn1c(-c2ccc(Cl)cc2)c(C#N)c(Br)c1C(F)(F)F | – | – | 100 | 100 | – | – | – | – | –
CCC(C)OC(=O)C(=O)OCn1c(-c2ccc(Cl)cc2)c(C#N)c(Br)c1C(F)(F)F (stereo not drawn) | 100 | – | 100 | 100 | 100 | 90 | 10 | – | 0
CCCCNC(=O)C(=O)OCn1c(-c2ccc(Cl)cc2)c(C#N)c(Br)c1C(F)(F)F | 48 | – | 0 | 100 | 100 | 90 | 20 | 0 | –
CC(C)(C)OC(=O)C(=O)OCn1c(-c2ccc(Cl)cc2)c(C#N)c(Br)c1C(F)(F)F | – | – | 10 | 100 | – | – | – | – | –
CC(C)OC(=O)C(=O)OCn1c(-c2ccc(Cl)cc2)c(C#N)c(Br)c1C(F)(F)F | 100 | – | 70 | 100 | 100 | 100 | 20 | – | –
CC(C)NC(=O)C(=O)OCn1c(-c2ccc(Cl)cc2)c(C#N)c(Br)c1C(F)(F)F | 100 | 87 | 20 | 100 | 100 | 80 | 30 | 95 | –
N#Cc1c(Br)c(C(F)(F)F)n(COC(=O)C(=O)Nc2ccc(Cl)cc2)c1-c1ccc(Cl)cc1 | 100 | 84 | 20 | 100 | 100 | 10 | 0 | 92 | –
N#Cc1c(Br)c(C(F)(F)F)n(COC(=O)C(=O)NC2CCCCC2)c1-c1ccc(Cl)cc1 | 76 | – | 20 | 100 | 100 | 90 | 20 | 46 | –
CC(C)(C)NC(=O)C(=O)OCn1c(-c2ccc(Cl)cc2)c(C#N)c(Br)c1C(F)(F)F | – | – | 20 | 100 | 100 | 30 | 10 | – | –
C/C=C/OC(=O)C(=O)OCn1c(-c2ccc(Cl)cc2)c(C#N)c(Br)c1C(F)(F)F | – | – | 30 | 100 | 100 | 100 | 80 | – | –
CCOCCOC(=O)C(=O)OCn1c(-c2ccc(Cl)cc2)c(C#N)c(Br)c1C(F)(F)F | – | – | 20 | 100 | 100 | 100 | 80 | – | –
COC(=O)C(=O)OCn1c(-c2ccc(Cl)cc2)c(C#N)c(Br)c1C(F)(F)F | – | – | 15 | 100 | – | – | – | – | –
Cc1ccc(NC(=O)C(=O)OCn2c(-c3ccc(Cl)cc3)c(C#N)c(Br)c2C(F)(F)F)cc1 | 96 | 79 | 10 | 100 | 100 | 100 | 40 | 90 | –
N#Cc1c(Br)c(C(F)(F)F)n(COC(=O)C(=O)Nc2ccccc2Cl)c1-c1ccc(Cl)cc1 | 71 | – | 30 | 100 | – | – | – | 51 | –
CCCOC(=O)C(=O)OCn1c(-c2ccc(Cl)cc2)c(C#N)c(Br)c1C(F)(F)F | 100 | – | 100 | 100 | 100 | 100 | 10 | – | 0
CCOC(=O)C(=O)OCn1c(-c2ccc(Cl)cc2)c(C#N)c(Br)c1C(F)(F)F | – | – | 80 | 100 | – | – | – | – | –
N#Cc1c(Br)c(C(F)(F)F)n(COC(=O)C(=O)OCC2CCCC2)c1-c1ccc(Cl)cc1 | 100 | 84 | 30 | 100 | 100 | 100 | 20 | 90 | –
